Source: patent US20230372318A1, “METHODS FOR TREATING A SUBJECT HAVING MULTIPLE SYSTEM ATROPHY” (Theravance Biopharma R&D IP, LLC, priority 2022, published 2023)
“Also recorded” adds a separate entry of the source.

How the values were obtained:
rat native NET = test: [3H]-NE uptake inhibition, rat cortical synaptosomes; format: biochemical; conditions: [3H]-NE vs [3H]-5-HT uptake
Excerpt: The in vitro pharmacology of ampreloxetine at human recombinant and rat native monoamine transporters was characterized as described in Smith et al., Inter. J. Neuropsychopharmcol. (2015) 1-11; and Tsuruda et al., J. Pharmacol. Toxicol. Meth. (2010) 61:192-204. See also, e.g., U.S. Pat. Nos. 8,304,432 B2 and 8,304,433 B2. Radioligands were sourced commercially (Perkin Elmer LifeSciences or GE Healthcare Life Sciences).
Briefly, membranes prepared from HEK293 (Human Embryonic Kidney 293) or CHO-K1 (Chinese Hamster Ovary-K1) cells stably transfected with human recombinant SERT (HEK293-hSERT), NET (HEK293-hNET), or DAT (CHO-K1-hDAT) were incubated for 1 hr at 22° C. in the absence, or presence, of 4-[2-(2,4,6-trifluorophenoxymethyl)phenyl]piperidine and [^3H]-citalopram (1.0 nM) for SERT, [^3H]-nisoxetine (2.0 nM) for NET, and [^3H]-WIN35428 (3.0 nM) for DAT in 50 mM Tris-HCl, 120 mM NaCl, 5 mM KCl, 0.025% BSA, 100 μM ascorbic acid, pH 7.4. Rat cortical membrane preparations were incubated with [^3H]-citalopram (2.0 nM) for SERT or [^3H]-nisoxetine (4.0 nM) for NET for 1 hr at 22° C. […] Binding and uptake assays were terminated by rapid filtration and radioactivity determined by liquid scintillation spectroscopy. […] Selectivity for NET (rounded to one significant figure) was determined as follows: […]

plasma protein = test: Plasma protein binding, rat; format: in vitro ADME
[1] = molecular target: T1, cytochrome P450 1A2 (CYP1A2) (Homo sapiens, UniProt P05177); conditions: healthy subjects, cited from earlier work
T1 construct: from tissue; host or cells: in vivo, healthy human subjects (as reported in Kanodia et al. 2021)

[2] = tested on: subjects with attention-deficit hyperactivity disorder and fibromyalgia; conditions: 5 mg or 20 mg once per day for 6 weeks; cited from earlier work
[3] = tested on: subjects with primary autonomic failures (MSA, PD, or PAF) and symptomatic nOH; test: Phase 3 4-week clinical study in symptomatic nOH (Example 6)
Excerpt: The first Phase 3 study was a randomized, double-blind, placebo-controlled, parallel-group, multicenter study designed to evaluate its efficacy, safety, and tolerability in subjects with primary autonomic failures (MSA, PD, or PAF) and symptomatic nOH after 4 weeks of treatment.
This study was a Phase 3, randomized, double-blind, placebo-controlled, parallel-group, multicenter study to evaluate efficacy, safety, and tolerability of ampreloxetine (administered as ampreloxetine hydrochloride) in subjects with primary autonomic failures (MSA, PD, or PAF) and symptomatic nOH after four weeks of treatment. Subjects participated in the study for approximately 10 weeks.
Subjects were randomized in a 1:1 ratio to each of either ampreloxetine or placebo group stratified by the subject's disease type (MSA, PD, or PAF).
Subjects were randomized in a 1:1 ratio to receive either ampreloxetine (test product) or placebo (reference product) once daily through the end of the treatment period.
Subjects randomized to receive ampreloxetine began taking study medication on Day 2 in the morning at a dose of 10 mg and continued to take this dose once daily through the end of the treatment period.
The study consisted of three periods: (i) 4-week screening, (ii) 4-week randomized treatment, and (iii) 2-week follow up.
Following randomization and completion of study assessments, the subject received a single 10-mg dose of ampreloxetine (or matching placebo) once daily (QD) for the remaining double-blind treatment period.
The efficacy assessments for this study included: OHQ; PGI-C; and incidence of falls. The exploratory assessments included: Orthostatic standing test; PK and pharmacodynamics; Non-Motor Symptom Scale (NMSS); EQ-5D-5L; Hospital Anxiety and Depression Scale (HADS); and Burden Scale for Family Caregivers-short version (BSFC-s).
The primary study endpoint was the change from baseline in OHSA #1 (dizziness, lightheadedness, feeling faint, or feeling like blacking out) at Week 4.
The primary efficacy evaluation was the change from baseline of OHSA #1 at Week 4. Baseline was defined as Day 1 pre-dose measurement. A mixed model for repeated measures (MMRM) was fitted to compare treatments. The model included fixed effect class terms of treatment, baseline disease type (MSA, PD, PAF), week, and continuous covariate of baseline OHSA #1 score, a random subject effect, with an unstructured covariance structure using the FAS.

[4] = MSA subjects, Week 4, 10 mg, N 33

T1 sequence (P05177 whole entry): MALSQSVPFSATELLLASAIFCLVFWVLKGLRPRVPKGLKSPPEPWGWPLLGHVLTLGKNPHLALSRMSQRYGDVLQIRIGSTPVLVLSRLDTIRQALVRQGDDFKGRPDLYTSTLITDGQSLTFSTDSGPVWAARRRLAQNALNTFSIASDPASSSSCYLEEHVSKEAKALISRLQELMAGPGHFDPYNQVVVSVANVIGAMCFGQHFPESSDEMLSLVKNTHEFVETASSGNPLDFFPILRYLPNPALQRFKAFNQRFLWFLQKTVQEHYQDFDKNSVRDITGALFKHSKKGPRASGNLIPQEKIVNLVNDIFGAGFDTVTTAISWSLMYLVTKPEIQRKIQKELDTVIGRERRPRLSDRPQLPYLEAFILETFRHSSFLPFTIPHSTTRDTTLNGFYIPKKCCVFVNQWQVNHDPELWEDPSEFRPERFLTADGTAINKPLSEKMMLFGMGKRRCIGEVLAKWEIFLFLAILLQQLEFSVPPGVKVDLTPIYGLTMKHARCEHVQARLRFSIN

Fc1cc(F)c(OCc2ccccc2C2CCNCC2)c(F)c1 [Ampreloxetine, 4-[2-(2,4,6-trifluorophenoxymethyl)phenyl]piperidine]
Apparent functional selectivity for NET over SERT (rat native NET): 10 fold
Plasma protein binding (plasma protein): 90.2%
Enzyme responsible for metabolism ([1]; CYP1A2): primary enzyme responsible for ampreloxetine metabolism
Fraction eliminated through metabolism [1]: > 90%
Safety and tolerability [2]: generally well tolerated with no clinically significant safety signals
Deaths ([3]; 10 mg once daily, 4 weeks): no deaths were reported
Supine hypertension ([3]; 10 mg once daily, 4 weeks): no signal for supine hypertension
Serious adverse events, number of subjects ([3]; 10 mg once daily, 4 weeks, none considered related to study drug): four
Anxiety Total Score, Change from Baseline, LS Mean Difference ([3]; MSA subjects, Week 4, 10 mg vs placebo, P-value 0.136): −1.09
Anxiety Total Score, Change from Baseline, LS Mean [3, 4]: −0.75
Anxiety Total Score, Change from Baseline, Mean [3, 4]: −0.67
Anxiety Total Score, Change from Baseline, Median [3, 4]: −1.00
Primary endpoint: change from baseline of OHSA #1 score vs placebo ([3]; Week 4, 10 mg once daily, MSA, PD or PAF): did not meet its primary endpoint; also recorded: did not meet the primary endpoint
